# Data as given in US6197959A, “Piperidine derivatives” (Hoffmann-La Roche Inc., priority 1999, dated 2001).
# Target: T1, human renin (Homo sapiens, UniProt P00797)
# T1 sequence (P00797 67-406): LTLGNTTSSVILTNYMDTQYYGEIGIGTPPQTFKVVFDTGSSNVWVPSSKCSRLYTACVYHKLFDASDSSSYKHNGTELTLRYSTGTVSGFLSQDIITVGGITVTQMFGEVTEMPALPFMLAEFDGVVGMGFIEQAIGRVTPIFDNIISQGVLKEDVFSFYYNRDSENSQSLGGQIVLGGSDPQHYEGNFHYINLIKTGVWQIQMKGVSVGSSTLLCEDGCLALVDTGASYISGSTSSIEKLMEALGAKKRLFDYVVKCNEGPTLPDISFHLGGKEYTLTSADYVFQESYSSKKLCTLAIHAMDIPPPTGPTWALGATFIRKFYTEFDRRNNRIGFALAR
# Assay: In vitro Test With Pure Human Renin
# Assay type: biochemical
# Conditions: human tetradecapeptide substrate, pH 7.4, 3 h at 37° C., angiotensin I by RIA
# Method: The tests can be carried out in analogy to those described by D. T. Pals et al. in Hypertension Vol. 8, 1105-1112 (1986) or J. Boger et al. in J. Med. Chem. 28, 1779-1790 (1985) or […] et al. in J. Med. Chem. 30, 2137-2144 (1987) or T. Kokubu et al. in Biochem. Biophys. Res. Commun. 118, 929-993 (1984): In vitro Test With Pure Human Renin The test is carried out in Eppendorf test tubes. The incubation mixture consists of (1) 100 μl of human renin in buffer A (0.1 M sodium phosphate solution, pH 7.4, containing 0.1% bovine serum albumin, 0.1% sodium aside and 1 mM ethylenediaminetetraacetic acid), sufficient for a renin activity of 2-3 ng of angiotensin I/ml/hr.; (2) 145 μl of buffer A: (3) 30 μl of 10 mM human tetradecapeptide renin substrate (hTD) in 10 mM hydrochloric acid: (4) 15 μl of dimethyl sulphoxide with or without inhibitor and (5) 10 μl of a 0.03 molar solution of hydroxyquinoline sulphate in water. The samples are incubated for three hours at 37° C. and, respectively, 4° C. in triplicate. 2×100 μl samples per test tube are used in order to measure the production of angiotensin I via RIA (standard radioimmunoassay; clinical assay solid phase kit). Cross reactivities of the antibody used in the RIA are: angiotensin I 100%; angiotensin II 0.0013%; hTD (angiotensin […]-OH) 0.09%. The production of angiotensin I is determined by the difference between the test at 37° C. and that at 4° C. The following controls are carried out: (a) Incubation of hTD samples without renin and without inhibitor at 37° C. and 4° C. The difference between these two values gives the base value of the angiotensin I production. (b) Incubation of hTD samples with renin, but without inhibitor at 37° C. and 4° C. The difference between these values gives the maximum value of the angiotensin I production. In each sample the base value of the angiotensin I production is subtracted from the angiotensin I production which is determined. […] The IC50 values are determined from a linear regression curve from a logit-log plot.
row,Structure (SMILES),IC50 [nM]
1,"COC(=O)CCN1CCCc2ccc(COC3CNCC[C@@H]3c3ccc(OCCCOCc4ccccc4OC)cc3)cc21 (mixture of isomers) [E, (3RS,4R)-3-[7-(4-[4-[3-(2-methoxy-benzyloxy)-propoxy]-phenyl]-piperidin-3-yloxymethyl)-3,4-dihydro-2H-quinolin-1-yl]-propionic acid methyl ester]",0.04
2,"COc1ccccc1COCCCOc1ccc([C@H]2CCNC[C@@H]2OCc2ccc3c(c2)N(CCNC(C)=O)CCC3)cc1 [A, (3R,4R)-N-[2-[7-[4-[4-[3-(2-methoxy-benzyloxy)-propoxy]-phenyl]-piperidin-3-yloxymethyl]-3,4-dihydro-2H-quinolin-1-yl]-ethyl]-acetamide]",0.05
3,"CCOC(=O)CN1CCCc2ccc(CO[C@H]3CNCC[C@@H]3c3ccc(OCCCOCc4ccccc4OC)cc3)cc21 [B, (3R,4R)-[7-(4-[4-[3-(2-methoxy-benzyloxy)-propoxy]-phenyl]-piperidin-3-yloxymethyl)-3,4-dihydro-2H-quinolin-1-yl]-acetic acid ethyl ester]",0.05
4,"COc1ccccc1COCCCOc1ccc([C@H]2CCNC[C@@H]2OCc2ccc3c(c2)N(CCCO)CCC3)cc1 [C, (3R,4R)-3-[7-[4-[4-[3-(2-methoxy-benzyloxy)-propoxy]-phenyl]-piperidin-3-yloxymethyl]-3,4-dihydro-2H-quinolin-1-yl]-propan-1-ol]",0.08
5,"COc1ccccc1COCCCOc1ccc([C@H]2CCNC[C@@H]2OCc2ccc3c(c2)N(CCNS(N)(=O)=O)CCC3)cc1 [Compound I, (3R,4R)-N-[2-[7-[4-[4-[3-(2-methoxy-benzyloxy)-propoxy]-phenyl]-piperidin-3-yloxymethyl]-3,4-dihydro-2H-quinolin-1-yl]-ethyl]-sulfamide]",0.06
6,"COC(=O)CN1CCCc2ccc(CO[C@H]3CNCC[C@@H]3c3ccc(OCCCOCc4ccccc4OC)cc3)cc21 [D, (3R,4R)-[7-(4-[4-[3-(2-methoxy-benzyloxy)-propoxy]-phenyl]-piperidin-3-yloxymethyl)-3,4-dihydro-2H-quinolin-1-yl]-acetic acid methyl ester]",0.02
7,"COCCCN1CCCc2ccc(CO[C@H]3CNCC[C@@H]3c3ccc(OCCCOCc4ccccc4OC)cc3)cc21 [F, (3R,4R)-7-[4-[4-[3-(2-methoxy-benzyloxy)-propoxy]-phenyl]-piperidin-3-yloxymethyl)-1-(3-methoxy-propyl]-1,2,3,4-tetrahydro-quinoline]",0.05
8,"COc1ccccc1COCCCOc1ccc([C@H]2CCNC[C@@H]2OCc2ccc3c(c2)N(CC#N)CCC3)cc1 [G, (3R,4R)-[7-(4-[4-[3-(2-methoxy-benzyloxy)-propoxy]-phenyl]-piperidin-3-yloxymethyl)-3,4-dihydro-2H-quinolin-1-yl]-acetonitrile]",0.07
9,"COc1ccccc1COCCCOc1ccc([C@H]2CCNC[C@@H]2OCc2ccc3c(c2)N(CCNS(C)(=O)=O)CCC3)cc1 [H, (3R,4R)-N-[2-[7-[4-[4-[3-(2-methoxy-benzyloxy)-propoxy]-phenyl]-piperidin-3-yloxymethyl]-3,4-dihydro-2H-quinolin-1-yl]-ethyl]-methanesulfonamide]",0.07
10,COc1ccccc1COCCCOc1ccc([C@H]2CCNC[C@@H]2OCc2ccc3c(c2)N(CCNC(N)=O)CCC3)cc1 [J],0.09
11,"COc1ccccc1COCCCOc1ccc([C@H]2CCNC[C@@H]2OCc2ccc3c(c2)N(CCNC(=O)C(F)(F)F)CCC3)cc1 [K, (3R,4R)-2,2,2-trifluoro-N-[2-[7-[4-[4-[3-(2-methoxy-benzyloxy)-propoxy]-phenyl]-piperidin-3-yloxymethyl]-3,4-dihydro-2H-quinolin-1-yl]-ethyl]-acetamide]",0.05
